Assay results taken from patent US10059722B2, “Cephalosporin derivatives and methods of use” (priority 2012, dated 2018).
Converted amounts (≈) assume the structure as drawn. Read-outs that look alike come from different tables or passages of the source.

How the values were obtained:
HepG2 cells = assay type: cell-based
Procedure: Three lead compounds were identified in the first round of high throughput screening (700 compounds), which had minimal inhibitory concentrations (MIC) of 0.4-0.8 μg/mL after a six day exposure to drug (NRd6) in the model of non-replication at pH 5.0, and LD50's of 100 to >100 μg/mL against HepG2 cells (a 2 day exposure).
Furthermore, LD50 values were determined using a human hepatoma cell line (HepG2) using intracellular ATP levels as a measurement that correlated with cellular viability.

[1] = system: non-replicating M. tuberculosis; test: microbe, parasite or virus in culture; assay type: cell-based, Mycobacterium tuberculosis; details: for MIC: Mycobacterium tuberculosis
[2] = system: replicating M. tuberculosis; test: MIC under replication (R) conditions; assay type: cell-based, Mycobacterium tuberculosis; details: Mycobacterium tuberculosis, read-out: minimum inhibitory concentration against replicating M. tuberculosis
[3] = Table 8, ranges from multiple assays
[4] = read-out: MIC NR at 0.01 Inoc. and 3 Day Exposure to Drug, 7 Day Outgrowth, Table 8, ranges from multiple assays
[5] = read-out: MIC NR at 0.01 Inoc. and 3 Day Exposure to Drug, 11 Day Outgrowth, Table 8, ranges from multiple assays
[6] = 3,4-olefinic isomers, read-out: minimum inhibitory concentration against non-replicating M. tuberculosis

Structure (SMILES) | HepG2 Toxicity LD50 (HepG2 cells; Table 8) [µg/mL] | MIC NR at 0.01 Inoc. and 3 Day Exposure to Drug, 7 Day Outgrowth [1, 3] [µg/mL] | MIC NR at 0.01 Inoc. and 3 Day Exposure to Drug, 11 Day Outgrowth [1, 3] [µg/mL] | HepG2 Toxicity LD50 (HepG2 cells; human, 2 day) [µg/mL] | MIC [1, 4] [µg/mL] | MIC [1, 5] [µg/mL] | MIC [2] [µg/mL] | MIC [1, 6] [µg/mL]
CCOC(=O)C1=C(C)CS[C@@H]2[C@H](NC(=O)CCc3ccc(Cl)cc3)C(=O)N12 [Compound 55] | >100 | 0.20 (≈ 0.489 µM) | 0.39 (≈ 0.954 µM) | – | – | – | – | –
COc1ccc(CCC(=O)N[C@@H]2C(=O)N3C(C(=O)OCc4ccccc4)=C(C)CS[C@H]23)cc1 [Compound 101] | – | – | – | >100 | 0.39 (≈ 0.836 µM) | 0.78 (≈ 1.67 µM) | – | –
CC1=C(C(=O)OCc2ccccc2)N2C(=O)[C@@H](NC(=O)COc3ccc(Cl)cc3)[C@H]2SC1 [Compound 102] | – | – | – | >100 | 0.78 (≈ 1.65 µM) | 1.56 (≈ 3.3 µM) | – | –
C#CCOC(=O)N[C@@H]1C(=O)N2C(C(=O)OCC#C)=C(C)CS[C@H]12 [Compound 105] | – | – | – | >100 | 6.25 (≈ 18.7 µM) | 12.5 (≈ 37.4 µM) | – | –
C#CCOC(=O)C1=C(C)CS[C@@H]2[C@H](NC(=O)CCc3ccc(Cl)cc3)C(=O)N12 [Compound 97] | 100 | 0.39 (≈ 0.931 µM) | 0.78 (≈ 1.86 µM) | – | – | – | – | –
C#CCOC(=O)C1=C(C)CS[C@@H]2[C@H](NC(=O)COc3ccccc3)C(=O)N12 [Compound 82] | >100 | 1.56 (≈ 4.04 µM) | 3.13 (≈ 8.1 µM) | – | – | – | – | –
CCCOC(=O)C1=C(C)CS[C@@H]2[C@H](NC(=O)CCc3ccc(OC)cc3)C(=O)N12 [Compound 99] | – | – | – | >100 | 0.1 (≈ 0.239 µM) | 0.2 (≈ 0.478 µM) | – | –
CCOC(=O)C1=C(C)CS[C@@H]2[C@H](NC(=O)COc3ccc(OC)cc3)C(=O)N12 [Compound 43] | >100 | 0.39 (≈ 0.96 µM) | 1.56 (≈ 3.84 µM) | – | – | – | – | –
CCOC(=O)C1=C(C)CS[C@@H]2[C@H](NC(=O)CCc3ccccc3)C(=O)N12 [Compound 49] | >100 | 0.20 (≈ 0.534 µM) | 0.39 (≈ 1.04 µM) | – | – | – | – | –
C#CCOC(=O)C1=C(C)CS[C@@H]2[C@H](NC(=O)COc3ccc(OC)cc3)C(=O)N12 [Compound 85] | >100 | 0.78 (≈ 1.87 µM) | 1.56 (≈ 3.75 µM) | – | – | – | – | –
CCCOC(=O)C1=C(C)CS[C@@H]2[C@H](NC(=O)CCc3ccc(OC)cc3)C(=O)N12 [Compound 51] | – | 0.10 (≈ 0.239 µM) | 0.10 (≈ 0.239 µM) | – | – | – | – | –
C#CCOC(=O)C1=C(C)CS[C@@H]2[C@H](NC(=O)COc3ccc(Cl)cc3)C(=O)N12 [Compound 88] | 100 | 0.78 (≈ 1.85 µM) | 1.56 (≈ 3.71 µM) | – | – | – | – | –
CCCOC(=O)C1=C(C)CS[C@@H]2[C@H](NC(=O)COc3ccc(OC)cc3)C(=O)N12 [Compound 42] | >100 | 0.20 (≈ 0.476 µM) | 0.39 (≈ 0.927 µM) | – | – | – | – | –
CCOC(=O)C1=C(C)CS[C@@H]2[C@H](NC(=O)COc3ccccc3)C(=O)N12 [Compound 40] | >100 | 0.39 (≈ 1.04 µM) | 0.78 (≈ 2.07 µM) | – | – | – | – | –
CCOC(=O)C1=C(C)CS[C@@H]2[C@H](NC(=O)CCc3ccc(OC)cc3)C(=O)N12 [Compound 52] | >100 | 0.20 (≈ 0.494 µM) | 0.39 (≈ 0.964 µM) | – | – | – | – | –
CCCCOC(=O)C1C(C)=CS[C@@H]2[C@H](NC(=O)COc3ccccc3)C(=O)N12 (stereo partly drawn) [Compound 119] | – | – | – | – | – | – | 100 (≈ 247 µM) | 3.1 (≈ 7.66 µM)
CC1=C(C(=O)OCc2ccccc2)N2C(=O)[C@@H](NC(=O)CCc3ccc(Cl)cc3)[C@H]2SC1 [Compound 100] | – | – | – | 50 | 0.39 (≈ 0.828 µM) | 0.78 (≈ 1.66 µM) | – | –
CCCOC(=O)C1=C(C)CS[C@@H]2[C@H](NC(=O)CCc3ccc(Cl)cc3)C(=O)N12 [Compound 54] | >100 | 0.20 (≈ 0.473 µM) | 0.39 (≈ 0.922 µM) | – | – | – | – | –
CCCOC(=O)C1=C(C)CS[C@@H]2[C@H](NC(=O)COc3ccc(Cl)cc3)C(=O)N12 [Compound 45] | 100 | 0.39 (≈ 0.918 µM) | 0.39 (≈ 0.918 µM) | – | – | – | – | –
C#CCOC(=O)C1=C(C)CS[C@@H]2[C@H](NC(=O)CCc3ccccc3)C(=O)N12 [Compound 91] | >100 | 0.78 (≈ 2.03 µM) | 1.56 (≈ 4.06 µM) | – | – | – | – | –
C#CCOC(=O)C1=C(C)CS[C@@H]2[C@H](NC(=O)CCc3ccc(OC)cc3)C(=O)N12 [Compound 94] | >100 | 0.78 (≈ 1.88 µM) | 1.56 (≈ 3.76 µM) | – | – | – | – | –
CCOC(=O)C1=C(C)CS[C@@H]2[C@H](NC(=O)COc3ccc(Cl)cc3)C(=O)N12 [Compound 46] | 50 | 0.39 (≈ 0.949 µM) | 078 (≈ 190 µM) | – | – | – | – | –
COc1ccc(OCC(=O)N[C@@H]2C(=O)N3C(C(=O)OCc4ccccc4)=C(C)CS[C@H]23)cc1 [Compound 103] | – | – | – | >100 | 0.78 (≈ 1.66 µM) | 1.56 (≈ 3.33 µM) | – | –
C#CCOC(=O)C1=C(C)CS[C@@H]2[C@H](N(CC#C)CC#C)C(=O)N12 [Compound 106] | – | – | – | 100 | 12.5 (≈ 38.1 µM) | 25 (≈ 76.1 µM) | – | –
C#CCCC(=O)N[C@@H]1C(=O)N2C(C(=O)OCCC)=C(C)CS[C@H]12 [Compound 34] | >100 | 1.56 (≈ 4.64 µM) | 3.13 (≈ 9.3 µM) | – | – | – | – | –
CC1=C(C(=O)OCc2ccccc2)N2C(=O)[C@@H](NC(=O)COc3ccccc3)[C@H]2SC1 [Compound 104] | – | – | – | >100 | 1.56 (≈ 3.56 µM) | 3.13 (≈ 7.14 µM) | – | –
CCCCOC(=O)C1C(C)=CS[C@@H]2[C@H](NC(=O)COc3ccccc3)C(=O)N12 (stereo partly drawn) [Compound 98] | – | – | – | 100 | 0.39 (≈ 0.964 µM) | 0.39 (≈ 0.964 µM) | – | –
CCCOC(=O)C1=C(C)CS[C@@H]2[C@H](NC(=O)CCc3ccccc3)C(=O)N12 [Compound 48] | >100 | 0.10 (≈ 0.257 µM) | 0.20 (≈ 0.515 µM) | – | – | – | – | –
C=CC1=C(C(=O)O)N2C(=O)[C@@H](NC(=O)/C(=N\O)c3csc(N)n3)[C@H]2SC1 [Compound 107] | – | – | – | >100 | 50 (≈ 126 µM) | 50 (≈ 126 µM) | – | –
CCCCOC(=O)C1=C(C)CS[C@@H]2[C@H](NC(=O)COc3ccccc3)C(=O)N12 [Compound 118] | – | – | – | – | – | – | 100 (≈ 247 µM) | 3.1 (≈ 7.66 µM)
